Results on two compounds are retold here after patent US20030104089A1, “Minari extract for preventing the induction and metastasis of cancer by carcinogens contained in cigarette smoke, fermented foods or alcoholic drinks” (priority 2000, published 2003).

Data set [1] concerns PCNA (proliferative cell nuclear antigen). Briefly: PCNA expression in lung tissue of NNK-treated A/J mice. The format is in vivo. The settings on record: single i.p. NNK 4 mg, normal feed, 4 months, compared to water-only-receiving group. Here is the method:
The NNK group received a single administration of 4 mg of NNK. The group receiving NNK-Minari received a single administration of NNK and thereafter a feed to which Minari extract was added at a 1.25% (w/w) concentration. The other group received a normal feed. All the groups were allowed take, ad lib., their feeds for 4 months.
A/J mice were divided into three experimental groups: a single intraperitoneal water administration-receiving (+normal feed) group; a single intraperitoneal NNK (4 mg) administration-receiving (+normal feed) group; and a single intraperitoneal NNK administration-receiving (+feed to which Minari extract is added at a concentration of 1.25%) group. Four months later, the expression level of PCNA in each experimental group was measured.

The conditions of data set [2]: humans, calculated; cited from earlier work.

Take `CN(CCCC(=O)c1cccnc1)N=O` [NNK, {(4-N-methyl-N-nitrosoamino)-1-(3-pyridyl)-1-butanone}]: the “expression level of PCNA” value in data set [1] is on record as “significantly increased”.
As for `CCOC(N)=O` [urethane, ethylcarbamate], in data set [2], the “virtually safe dose (VSD) for liver cancer” value was 7.2×10^−5 mg/kg body weight and the “virtually safe dose (VSD) for lung cancer” value is reported as 1.8×10^−4 mg/kg body weight.
